This note sets out measurements from patent US20230373985A1 (Origenis Gmbh, priority 2020, published 2023).

For experiment [1], the target named is T1, wt human TYK2, catalytic site (Homo sapiens, UniProt P29597).
T1 construct: wt human TYK2, catalytic site; purchased SignalChem
T1 sequence (P29597 897-1176 limits assumed): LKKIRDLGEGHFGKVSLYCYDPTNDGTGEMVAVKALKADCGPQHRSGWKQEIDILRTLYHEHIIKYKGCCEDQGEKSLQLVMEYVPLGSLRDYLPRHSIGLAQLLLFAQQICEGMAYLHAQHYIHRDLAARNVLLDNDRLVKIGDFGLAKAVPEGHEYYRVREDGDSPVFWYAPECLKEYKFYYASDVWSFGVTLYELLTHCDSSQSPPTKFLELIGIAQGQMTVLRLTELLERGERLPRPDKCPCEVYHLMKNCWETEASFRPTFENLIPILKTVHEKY
Description: HTRF KinEASE assay, TYK2. The format is biochemical. Particulars: 1 μM ATP; read-out: IC50, Activity Toward TYK2. The procedure, abridged: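 HTRF KinEASE-TK readout with 1 μM biotinylated TK substrate in 1× kinase buffer, ≥30 min at room temperature, then antibody/streptavidin-XL665 detection for 60 min. TYK2 at 2 nM with 1 μM ATP; JAK2 at 1 nM with 100 μM ATP. Analysis uses emission ratios.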

Experiment [2] concerns the target T2, wt human JAK1, catalytic site (Homo sapiens, UniProt P23458).
T2 construct: wt human JAK1, catalytic site; purchased ThermoFisher
As to the kind of experiment: HTRF KinEASE assay, JAK1. The format is biochemical. As to conditions: 2.5 μM ATP; read-out: IC50, Activity Toward JAK1. The method in brief: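 Two-step HTRF KinEASE assay: compound, kinase/biotinylated TK substrate and ATP were incubated at least 30 min at room temperature. Antibody plus streptavidin-XL665 was then added and plates were read after 60 min. Inhibition was derived from emission ratios according to the kit protocol.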
In general terms: TR-FRET usually uses a lanthanide donor and a delayed reading to cut background.

Each structure is given as a SMILES string. pIC50: −log10 of the molar value. Several values for one entry are separate records, joined by “and”; a condition that tells them apart may be missing. Equal entries are not always repeated. A value given as a limit tells only on which side of the number the result lay.

T2 sequence (P23458 875-1153 limits assumed): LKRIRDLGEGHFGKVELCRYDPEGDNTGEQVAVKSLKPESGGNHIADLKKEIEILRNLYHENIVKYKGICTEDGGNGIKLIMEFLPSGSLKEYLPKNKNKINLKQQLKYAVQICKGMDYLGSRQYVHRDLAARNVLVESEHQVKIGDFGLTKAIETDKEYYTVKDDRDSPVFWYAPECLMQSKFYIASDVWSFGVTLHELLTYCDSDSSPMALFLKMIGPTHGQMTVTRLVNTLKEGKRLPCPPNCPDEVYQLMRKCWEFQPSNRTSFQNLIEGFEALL

As usually defined, the pIC50 is the IC50 on a negative log10 scale, so that one unit is a factor of ten. Regarding `NC(=O)c1nn(-c2c(Cl)cccc2Cl)cc1Nc1ccc(C(=O)N2CC(F)(F)C(F)(F)C2)nc1` [compound 362, 1-(2,6-dichlorophenyl)-4-((6-(3,3,4,4-tetrafluoropyrrolidine-1-carbonyl)pyridin-3-yl)amino)-1H-pyrazole-3-carboxamide], the pIC50 was 7.00 to 8.00 in experiment [1] and 6.00 to 7.00 in experiment [2].

Regarding `CN1CCN(C(=O)c2ccc(Nc3cn(-c4c(Cl)cccc4Cl)nc3C(N)=O)cn2)CC1` [compound 363, 1-(2,6-dichlorophenyl)-4-((6-(4-methylpiperazine-1-carbonyl)pyridin-3-yl)amino)-1H-pyrazole-3-carboxamide], the pIC50 in experiment [1] is 7.00 to 8.00; in experiment [2] it was 6.00 to 7.00.

With `NC(=O)c1nn(-c2c(Cl)cccc2Cl)cc1Nc1ccc(C(=O)N2CCN(C3CC3)CC2)nc1` [compound 364, 4-((6-(4-cyclopropylpiperazine-1-carbonyl)pyridin-3-yl)amino)-1-(2,6-dichlorophenyl)-1H-pyrazole-3-carboxamide], the pIC50 in experiment [1] is 7.00 to 8.00; in experiment [2], 6.00 to 7.00.

Turning to `NC(=O)c1nn(-c2c(Cl)cccc2Cl)cc1Nc1ccc(C(=O)N2CCOCC2)nc1` [compound 365, 1-(2,6-dichlorophenyl)-4-((6-(morpholine-4-carbonyl)pyridin-3-yl)amino)-1H-pyrazole-3-carboxamide], the pIC50 in experiment [1] and in experiment [2] was 7.00 to 8.00 in each case.

As for `CN(C)[C@H]1CCN(C(=O)c2ccc(Nc3cn(-c4c(Cl)cccc4Cl)nc3C(N)=O)nc2)C1` [compound 366, (S)-1-(2,6-dichlorophenyl)-4-((5-(3-(dimethylamino)pyrrolidine-1-carbonyl)pyridin-2-yl)amino)-1H-pyrazole-3-carboxamide], the pIC50 was 7.00 to 8.00 in experiment [1] and 6.00 to 7.00 in experiment [2].

Take `NC(=O)c1nn(-c2c(Cl)cccc2Cl)cc1Nc1ccc(C(=O)N2CC[C@H](F)C2)cn1` [compound 367, (S)-1-(2,6-dichlorophenyl)-4-((5-(3-fluoropyrrolidine-1-carbonyl)pyridin-2-yl)amino)-1H-pyrazole-3-carboxamide]: the pIC50 in experiment [1] is 7.00 to 8.00; in experiment [2], 6.00 to 7.00.

Regarding `CN1CCN(C(=O)c2ccc(Nc3cn(-c4c(Cl)cccc4Cl)nc3C(N)=O)nc2)CC1` [compound 370, 1-(2,6-dichlorophenyl)-4-((5-(4-methylpiperazine-1-carbonyl)pyridin-2-yl)amino)-1H-pyrazole-3-carboxamide], the figures for the pIC50 in experiment [1] and in experiment [2] were 7.00 to 8.00 and 6.00 to 7.00, respectively.

On to `NC(=O)c1nn(-c2c(Cl)cccc2Cl)cc1Nc1ccc(-n2nc(C(F)(F)F)nc2CO)cc1` [compound 371, 1-(2,6-dichlorophenyl)-4-((4-(5-(hydroxymethyl)-3-(trifluoromethyl)-1H-1,2,4-triazol-1-yl)phenyl)amino)-1H-pyrazole-3-carboxamide], for which the pIC50 in experiment [1] is over 8.00; in experiment [2], 6.00 to 7.00.

Consider `NC(=O)c1nn(-c2c(Cl)cccc2Cl)cc1Nc1ccc(-c2nc(C(F)(F)F)cn2CCO)nc1` [compound 373, 1-(2,6-dichlorophenyl)-4-((6-(1-(2-hydroxyethyl)-4-(trifluoromethyl)-1H-imidazol-2-yl)pyridin-3-yl)amino)-1H-pyrazole-3-carboxamide], for which the pIC50 is 7.00 to 8.00 in experiment [1] and 6.00 to 7.00 in experiment [2].

Regarding `Cc1cnc(C)c(-n2cc(Nc3cn(-c4c(Cl)cccc4Cl)nc3C(N)=O)cn2)n1` [compound 374, 1-(2,6-dichlorophenyl)-4-((1-(3,6-dimethylpyrazin-2-yl)-1H-pyrazol-4-yl)amino)-1H-pyrazole-3-carboxamide], the pIC50 in experiment [1] and in experiment [2] was 6.00 to 7.00 throughout.

Regarding `Cn1nnnc1-c1ccc(Nc2cn(-c3c(Cl)cccc3Cl)nc2C(N)=O)cn1` [compound 375, 1-(2,6-dichlorophenyl)-4-((6-(1-methyl-1H-tetrazol-5-yl)pyridin-3-yl)amino)-1H-pyrazole-3-carboxamide], the pIC50 in experiment [1] was 7.00 to 8.00; in experiment [2], 6.00 to 7.00.

Consider `Cn1cc(Nc2cn(-c3c(Cl)cccc3Cl)nc2C(N)=O)cn1` [compound 377, 1-(2,6-dichlorophenyl)-4-((1-methyl-1H-pyrazol-4-yl)amino)-1H-pyrazole-3-carboxamide], for which the pIC50 in experiment [1] is 6.00 to 7.00; in experiment [2] it was 7.00 to 8.00.

With `CC(C)n1cc(Nc2cn(-c3c(Cl)cccc3Cl)nc2C(N)=O)cn1` [compound 378, 1-(2,6-dichlorophenyl)-4-((1-isopropyl-1H-pyrazol-4-yl)amino)-1H-pyrazole-3-carboxamide], the pIC50 in experiment [1] is 7.00 to 8.00; in experiment [2], 6.00 to 7.00.

In the case of `Cn1ncc(Nc2cn(-c3c(Cl)cccc3Cl)nc2C(N)=O)n1` [compound 379, 1-(2,6-dichlorophenyl)-4-((2-methyl-2H-1,2,3-triazol-4-yl)amino)-1H-pyrazole-3-carboxamide], the pIC50 in experiment [1] and in experiment [2] was 6.00 to 7.00 throughout.

Take `Cn1cc(Nc2cn(-c3c(Cl)cccc3Cl)nc2C(N)=O)nn1` [compound 380, 1-(2,6-dichlorophenyl)-4-((1-methyl-1H-1,2,3-triazol-4-yl)amino)-1H-pyrazole-3-carboxamide]: the pIC50 in experiment [1] and in experiment [2] was 6.00 to 7.00 each time.

Turning to `Cn1ccc(Nc2cn(-c3c(Cl)cccc3Cl)nc2C(N)=O)cc1=O` [compound 381, 1-(2,6-dichlorophenyl)-4-((1-methyl-2-oxo-1,2-dihydropyridin-4-yl)amino)-1H-pyrazole-3-carboxamide], the pIC50 in experiment [1] and in experiment [2] was 6.00 to 7.00 in each case.

For `NC(=O)c1nn(-c2c(Cl)cccc2Cl)cc1Nc1ccc(C(=O)N2CCN(C3CC3)CC2)cn1` [compound 383, 4-((5-(4-cyclopropylpiperazine-1-carbonyl)pyridin-2-yl)amino)-1-(2,6-dichlorophenyl)-1H-pyrazole-3-carboxamide], the pIC50 is 7.00 to 8.00 and 6.00 to 7.00 in experiment [1]; 6.00 to 7.00 in experiment [2].

As for `NC(=O)c1nn(-c2c(Cl)cccc2Cl)cc1Nc1ccc(N2CCCCC2=O)nc1` [compound 384, 1-(2,6-dichlorophenyl)-4-((6-(2-oxopiperidin-1-yl)pyridin-3-yl)amino)-1H-pyrazole-3-carboxamide], the pIC50 in experiment [1] and in experiment [2] was 6.00 to 7.00 each time.

Turning to `NC(=O)c1nn(-c2c(Cl)cccc2Cl)cc1Nc1ccc(-n2nc(C(F)(F)F)nc2CO)nc1` [compound 385, 1-(2,6-dichlorophenyl)-4-((6-(5-(hydroxymethyl)-3-(trifluoromethyl)-1H-1,2,4-triazol-1-yl)pyridin-3-yl)amino)-1H-pyrazole-3-carboxamide], the pIC50 is 7.00 to 8.00 in experiment [1] and 6.00 to 7.00 in experiment [2].

As for `NC(=O)c1nn(-c2c(Cl)cccc2Cl)cc1Nc1ccc(-n2ccccc2=O)nc1` [compound 390, 1-(2,6-dichlorophenyl)-4-((2-oxo-2H-[1,2′-bipyridin]-5′-yl)amino)-1H-pyrazole-3-carboxamide], the pIC50 in experiment [1] and in experiment [2] was 6.00 to 7.00 in each case.

For the molecule `COc1ccc(Cn2cc(Nc3cn(-c4c(Cl)cccc4Cl)nc3C(N)=O)cn2)cc1` [compound 392, 1-(2,6-dichlorophenyl)-4-((1-(4-methoxybenzyl)-1H-pyrazol-4-yl)amino)-1H-pyrazole-3-carboxamide], the pIC50 in experiment [1] and in experiment [2] was 6.00 to 7.00 in each case.

As to `CC(C)c1nnnn1-c1ccc(Nc2cn(-c3c(Cl)cccc3Cl)nc2C(N)=O)cn1` [compound 393, 1-(2,6-dichlorophenyl)-4-((6-(5-isopropyl-1H-tetrazol-1-yl)pyridin-3-yl)amino)-1H-pyrazole-3-carboxamide], the pIC50 in experiment [1] and in experiment [2] was 6.00 to 7.00 throughout.

Turning to `NC(=O)c1nn(-c2c(Cl)cccc2Cl)cc1Nc1ccn(-c2ccccn2)n1` [compound 397, 1-(2,6-dichlorophenyl)-4-((1-(pyridin-2-yl)-1H-pyrazol-3-yl)amino)-1H-pyrazole-3-carboxamide], the pIC50 in experiment [1] and in experiment [2] was 6.00 to 7.00 in each case.

Regarding `Cc1cc(C)n(-c2ccc(Nc3cn(-c4c(Cl)cccc4Cl)nc3C(N)=O)cn2)n1` [compound 398, 1-(2,6-dichlorophenyl)-4-((6-(3,5-dimethyl-1H-pyrazol-1-yl)pyridin-3-yl)amino)-1H-pyrazole-3-carboxamide], the pIC50 in experiment [1] and in experiment [2] was 6.00 to 7.00 in each case.

In the case of `NC(=O)c1nn(-c2c(Cl)cccc2Cl)cc1Nc1cnc(C(=O)N2CCOCC2)cn1` [compound 401, 1-(2,6-dichlorophenyl)-4-((5-(morpholine-4-carbonyl)pyrazin-2-yl)amino)-1H-pyrazole-3-carboxamide], the pIC50 in experiment [1] and in experiment [2] was 6.00 to 7.00 each time.

In the case of `CN1CCN(C(=O)c2cnc(Nc3cn(-c4c(Cl)cccc4Cl)nc3C(N)=O)cn2)CC1` [compound 402, 1-(2,6-dichlorophenyl)-4-((5-(4-methylpiperazine-1-carbonyl)pyrazin-2-yl)amino)-1H-pyrazole-3-carboxamide], the pIC50 in experiment [1] and in experiment [2] was 6.00 to 7.00 each time.

In the case of `CN1CCC(Oc2ccc(Nc3cn(-c4c(Cl)cccc4Cl)nc3C(N)=O)cn2)CC1` [compound 405, 1-(2,6-dichlorophenyl)-4-((6-((1-methylpiperidin-4-yl)oxy)pyridin-3-yl)amino)-1H-pyrazole-3-carboxamide], the pIC50 in experiment [1] and in experiment [2] was 6.00 to 7.00 each time.
